Measured values as given in ChEMBL document CHEMBL1125935, “(Phenylmethoxy)phenyl derivatives of omega-oxo- and omega-tetrazolylalkanoic acids and related tetrazoles. Synthesis and evaluation as leukotriene D4 receptor antagonists” (J Med Chem, 1991).

Assays:
Cavia porcellus [1] = species on record: Cavia porcellus; assay: pA2 value on guinea pig parenchyma tissue in presence of LTE4 as agonist; assay type: functional; conditions: read-out: pA2 (converted)
Cavia porcellus [2] = species on record: Cavia porcellus; assay: Antagonistic activity with LTD4 as agonist in parenchyma tissue of guinea pig smooth muscles.; assay type: functional, Muscle tissue
Cavia porcellus [3] = species on record: Cavia porcellus; assay: Antagonistic activity with U-46,619 as agonist in trachea tissue of guinea pig smooth muscles.; assay type: functional, Muscle tissue
Cavia porcellus [4] = species on record: Cavia porcellus; assay: pA2 value on guinea pig parenchyma tissue in presence of LTD4 as agonist; assay type: functional; conditions: read-out: pA2 (converted)
Cavia porcellus [5] = species on record: Cavia porcellus; assay: Antagonistic activity with LTE4 as agonist in ileum tissue of guinea pig smooth muscles.; assay type: functional
Cavia porcellus [6] = species on record: Cavia porcellus; assay: Antagonistic activity with LTD4 as agonist in ileum tissue of guinea pig smooth muscles.; assay type: functional
Cavia porcellus [7] = species on record: Cavia porcellus; assay: Antagonistic activity with LTE4 as agonist in parenchyma tissue of guinea pig smooth muscles.; assay type: functional, Muscle tissue
Cavia porcellus [8] = species on record: Cavia porcellus; assay: Antagonistic activity with LTE4 as agonist in trachea tissue of guinea pig smooth muscles.; assay type: functional, Muscle tissue
Cavia porcellus [9] = species on record: Cavia porcellus; assay: Antagonistic activity with LTC4 as agonist in ileum tissue of guinea pig smooth muscles.; assay type: functional
Cavia porcellus [10] = species on record: Cavia porcellus; assay: pA2 value on guinea pig trachea tissue in presence of LTE4 as agonist; assay type: functional; conditions: read-out: pA2 (converted)
Cavia porcellus [11] = species on record: Cavia porcellus; assay: Antagonistic activity with Bradykinin as agonist in ileum tissue of guinea pig smooth muscles.; assay type: functional
Cavia porcellus [12] = species on record: Cavia porcellus; assay: Antagonistic activity with LTD4 as agonist in trachea tissue of guinea pig smooth muscles.; assay type: functional, Muscle tissue
Cavia porcellus [13] = species on record: Cavia porcellus; assay: Antagonistic activity with Histamin as agonist in ileum tissue of guinea pig smooth muscles.; assay type: functional
Cavia porcellus [14] = species on record: Cavia porcellus; assay: pA2 value on guinea pig ileum tissue in presence of LTE4 as agonist; assay type: functional; conditions: read-out: pA2 (converted)
Cavia porcellus [15] = species on record: Cavia porcellus; assay: Antagonistic activity with LTC4 as agonist in trachea tissue of guinea pig smooth muscles.; assay type: functional, Muscle tissue
Cavia porcellus [16] = species on record: Cavia porcellus; assay: Antagonistic activity with Carbamylcholine as agonist in trachea tissue of guinea pig smooth muscles.; assay type: functional, Muscle tissue
Cavia porcellus [17] = species on record: Cavia porcellus; assay: pA2 value on guinea pig trachea tissue in presence of LTD4 as agonist; assay type: functional; conditions: read-out: pA2 (converted)
Cavia porcellus [18] = species on record: Cavia porcellus; assay: pA2 value on guinea pig ileum tissue in presence of LTD4 as agonist; assay type: functional; conditions: read-out: pA2 (converted)

Structure (SMILES) | Kb (Cavia porcellus [1]) | pKB (Cavia porcellus [2]) | pKB (Cavia porcellus [3]) | Kb (Cavia porcellus [4]) | pKB (Cavia porcellus [5]) | pKB (Cavia porcellus [6]) | pKB (Cavia porcellus [7]) | pKB (Cavia porcellus [8]) | pKB (Cavia porcellus [9]) | Kb (Cavia porcellus [10]) | pKB (Cavia porcellus [11]) | pKB (Cavia porcellus [12]) | pKB (Cavia porcellus [13]) | Kb (Cavia porcellus [14]) | pKB (Cavia porcellus [15]) | pKB (Cavia porcellus [16]) | Kb (Cavia porcellus [17]) | Kb (Cavia porcellus [18])
CCc1c(COc2ccc(C(=O)CC(C)(C)CC(=O)[O-])cc2)ccc(C(C)=O)c1O.[Na+] | 36.3 nM | 6.74 | <5 | 138 nM | 7.73 | 7.46 | 7.13 | 7.09 | <5 | 63.1 nM | <5 | 6.52 | <5 | 9.77 nM | <5 | <5 |  | 
CCCc1c(COc2ccc(Cc3nnn(CCCc4nnn[n-]4)n3)cc2)ccc(C(C)=O)c1O.[Na+] |  |  |  |  | 8.37 | 7.84 |  | 7.57 | 5.39 | 26.9 nM |  | 6.69 | <5 | 3.63 nM | 5.67 |  | 204 nM | 12 nM
